Assay results: US20070219186A1, “Pyrazolo[1,5-A]pyrimidine derivatives and methods of use thereof” (priority 2006, published 2007)
Where two headings read alike, the source gives them in different places.

Legend:
[1] = target: T1, human B-Raf (Homo sapiens, UniProt P15056); experiment: B-Raf Kinase to MEK1 ELISA; assay type: biochemical; settings: for inhibition at 10 µM: read-out: % Inhib./10 uM; for % Inhib./10 uM: single point assay
T1 construct: Flag; GST; made in house; host or cells: Sf9 insect cells (B-Raf); E. coli (MEK1-GST)
T1 sequence (P15056 whole entry): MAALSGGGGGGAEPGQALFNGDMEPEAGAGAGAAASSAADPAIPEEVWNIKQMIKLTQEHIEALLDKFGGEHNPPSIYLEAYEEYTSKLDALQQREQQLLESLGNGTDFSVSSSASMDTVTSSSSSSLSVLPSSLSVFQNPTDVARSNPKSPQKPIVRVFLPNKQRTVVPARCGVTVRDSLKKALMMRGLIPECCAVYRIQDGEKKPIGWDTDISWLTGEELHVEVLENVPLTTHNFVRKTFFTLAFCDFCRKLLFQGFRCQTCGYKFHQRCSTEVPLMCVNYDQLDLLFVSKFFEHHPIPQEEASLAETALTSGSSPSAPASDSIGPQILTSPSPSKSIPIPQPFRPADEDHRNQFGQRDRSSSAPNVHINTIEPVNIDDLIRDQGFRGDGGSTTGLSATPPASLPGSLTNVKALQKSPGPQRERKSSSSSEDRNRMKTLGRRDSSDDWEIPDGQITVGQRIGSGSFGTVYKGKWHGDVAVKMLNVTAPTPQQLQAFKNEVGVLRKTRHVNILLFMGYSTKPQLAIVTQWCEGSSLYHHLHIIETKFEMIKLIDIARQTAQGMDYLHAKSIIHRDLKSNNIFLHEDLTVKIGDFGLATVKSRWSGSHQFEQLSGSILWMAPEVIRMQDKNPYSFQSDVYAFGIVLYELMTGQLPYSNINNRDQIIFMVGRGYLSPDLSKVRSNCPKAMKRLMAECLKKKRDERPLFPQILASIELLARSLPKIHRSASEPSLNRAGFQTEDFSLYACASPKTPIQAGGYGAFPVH
In short: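 Flag/GST-tagged human B-Raf (Sf9, ~20 ng/point) phosphorylates non-active GST-MEK1 (50 nM final) with ATP and MgCl2 in MOPS pH 7.2 buffer, 60 min at RT. Product is captured on anti-GST plates; MEK1 pSer217/221 is read by phospho-antibody plus europium conjugate (DELFIA).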

[2] = median, cpd concentrations from 10 μM to 30 nM in half log dilutions, read-out: Median IC50

| IC50 [1, 2] | inhibition at 10 µM [1] | melting point | IC50 [1] | % Inhib./10 uM [1] | Molecule |
| --- | --- | --- | --- | --- | --- |
| 1.33 µM | 63% | 183 to 185 °C | – | – | CN1CCC(c2cnn3c(-c4cccc(NC(=O)c5cccc(C(F)(F)F)c5)c4)ccnc23)CC1 [Example 309, N-{3-[3-(1-methylpiperidin-4-yl)pyrazolo[1,5-a]pyrimidin-7-yl]phenyl}-3-(trifluoromethyl)benzamide] |
| 0.0423 µM | 100% | – | – | – | O=C(Nc1ccc(F)c(-c2ccnc3cc(-c4ccncc4)nn23)c1)c1cccc(C(F)(F)F)c1 [Example 317, N-[4-fluoro-3-(2-pyridin-4-ylpyrazolo[1,5-a]pyrimidin-7-yl)phenyl]-3-(trifluoromethyl)benzamide] |
| > 10 µM | – | – | – | 5% | N-{3-[3-(4-methoxyphenyl)pyrazolo[1,5-a]pyrimidin-7-yl]phenyl}-3-(trifluoromethyl)benzamide [Example 159] |
| > 10 µM | – | – | – | 12% | ethyl 7-{3-[(pyridin-3-ylcarbonyl)amino]phenyl}pyrazolo[1,5-a]pyrimidine-3-carboxylate [Example 204] |

Continued, molecule first:

| Molecule | IC50 [1, 2] | inhibition at 10 µM [1] | melting point | IC50 [1] | % Inhib./10 uM [1] |
| --- | --- | --- | --- | --- | --- |
| CN1CC=C(c2cnn3c(-c4cccc(NC(=O)c5cccc(C(F)(F)F)c5)c4)ccnc23)CC1 [Example 306, N-{3-[3-(1-methyl-1,2,3,6-tetrahydropyridin-4-yl)pyrazolo[1,5-a]pyrimidin-7-yl]phenyl}-3-(trifluoromethyl)benzamide] | 0.851 µM | 68% | 163 to 165 °C | – | – |
| O=C(Nc1cccc(-c2ccnc3c(-c4ccc(CN5CCCC5)cc4)cnn23)c1)c1cccc(C(F)(F)F)c1 [Example 315, N-(3-{3-[4-(pyrrolidin-1-ylmethyl)phenyl]pyrazolo[1,5-a]pyrimidin-7-yl}phenyl)-3-(trifluoromethyl)benzamide] | – | 102% | – | 0.0205 µM | – |
| O=C(Nc1cccc(-c2ccnc3c(-c4ccc(CN5CCCC5)o4)cnn23)c1)c1cccc(C(F)(F)F)c1 [Example 316, N-(3-{3-[5-(pyrrolidin-1-ylmethyl)-2-furyl]pyrazolo[1,5-a]pyrimidin-7-yl}phenyl)-3-(trifluoromethyl)benzamide] | 0.541 µM | 92% | – | – | – |
| O=C(Nc1ccc(F)c(-c2ccnc3ccnn23)c1)c1cccc(C(F)(F)F)c1 [Example 318, N-(4-fluoro-3-pyrazolo[1,5-a]pyrimidin-7-ylphenyl)-3-(trifluoromethyl)benzamide] | 3.55 µM | 59% | – | – | – |
| ethyl 7-{3-[({[(ethoxycarbonyl)phenyl]amino}carbonyl)amino]phenyl}pyrazolo[1,5-a]pyrimidine-3-carboxylate [Example 15] | > 10 µM | – | – | – | 0% |
